Test results taken from US9776997B2, “3-aryl-substituted imidazo[1,2-A]pyridines and their use” (Bayer Pharma Aktiengesellschaft, priority 2013, dated 2017).

Biological target: T1, recombinant guanylate cyclase reporter cell line (Rattus norvegicus, UniProt P19686+P20595)
T1 construct: expressed in transfected cells; host or cells: recombinant reporter cell line
T1 sequence (P19686 1-690): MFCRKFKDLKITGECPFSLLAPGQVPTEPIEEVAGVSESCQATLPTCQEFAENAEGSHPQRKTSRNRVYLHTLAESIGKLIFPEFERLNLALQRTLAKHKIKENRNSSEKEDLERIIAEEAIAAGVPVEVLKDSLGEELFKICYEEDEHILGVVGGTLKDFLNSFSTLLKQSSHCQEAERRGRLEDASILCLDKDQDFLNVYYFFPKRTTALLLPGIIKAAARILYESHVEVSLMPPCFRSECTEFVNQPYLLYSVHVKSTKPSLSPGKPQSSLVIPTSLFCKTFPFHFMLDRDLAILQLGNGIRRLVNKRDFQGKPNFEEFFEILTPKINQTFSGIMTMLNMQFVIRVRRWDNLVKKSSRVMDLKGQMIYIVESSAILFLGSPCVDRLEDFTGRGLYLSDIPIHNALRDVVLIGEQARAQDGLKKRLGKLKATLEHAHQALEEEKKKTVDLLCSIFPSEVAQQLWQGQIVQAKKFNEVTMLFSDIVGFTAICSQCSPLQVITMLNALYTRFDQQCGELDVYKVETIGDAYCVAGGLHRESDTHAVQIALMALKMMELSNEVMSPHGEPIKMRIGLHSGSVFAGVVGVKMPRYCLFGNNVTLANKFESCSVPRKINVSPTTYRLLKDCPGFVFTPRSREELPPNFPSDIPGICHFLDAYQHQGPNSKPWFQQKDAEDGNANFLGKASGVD
T1 sequence (P20595 1-619): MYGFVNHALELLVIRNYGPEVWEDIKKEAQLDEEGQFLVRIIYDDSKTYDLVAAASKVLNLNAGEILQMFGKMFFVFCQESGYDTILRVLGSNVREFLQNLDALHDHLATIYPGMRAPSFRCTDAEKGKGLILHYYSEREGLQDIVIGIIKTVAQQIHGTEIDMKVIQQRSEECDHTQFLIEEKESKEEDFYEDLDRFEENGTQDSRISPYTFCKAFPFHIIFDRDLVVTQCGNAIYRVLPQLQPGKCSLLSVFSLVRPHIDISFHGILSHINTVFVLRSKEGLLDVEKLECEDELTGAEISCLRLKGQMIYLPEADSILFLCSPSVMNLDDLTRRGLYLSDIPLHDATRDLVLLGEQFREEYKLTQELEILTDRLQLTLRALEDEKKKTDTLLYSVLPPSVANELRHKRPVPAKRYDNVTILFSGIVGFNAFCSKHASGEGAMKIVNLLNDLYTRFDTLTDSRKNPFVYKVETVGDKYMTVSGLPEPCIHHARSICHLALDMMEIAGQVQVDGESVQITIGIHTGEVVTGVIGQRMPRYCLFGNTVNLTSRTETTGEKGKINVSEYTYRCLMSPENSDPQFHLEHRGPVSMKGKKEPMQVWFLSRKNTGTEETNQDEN
Experiment: Effect on a recombinant guanylate cyclase reporter cell line
Format: cell-based
Conditions: MEC = minimum effective concentration; in some cases mean values for individual determinations
Protocol: B-2. Effect on a Recombinant Guanylate Cyclase Reporter Cell Line
The cellular effect of the inventive compounds is determined using a recombinant guanylate cyclase reporter cell line, as described in F. Wunder et al., Anal. Biochem. 339, 104-112 (2005).
Representative MEC values (MEC=minimum effective concentration) for the inventive compounds are shown in the table below (in some cases as mean values for individual determinations): […]

| SMILES | MEC [µM] |
| --- | --- |
| CCOC(=O)c1ncc(-c2c(C)nc3c(OCc4c(F)cccc4F)cc(C)cn23)s1 [Example 138, Ethyl 5-{8-[(2,6-difluorobenzyl)oxy]-2,6-dimethylimidazo[1,2-a]pyridin-3-yl}-1,3-thiazole-2-carboxylate] | 3.0 |
| CCOc1cc(-c2c(C)nc3c(OCc4c(F)cccc4F)cc(C)cn23)sc1N [Example 139, 5-{8-[(2,6-Difluorobenzyl)oxy]-2,6-dimethylimidazo[1,2-a]pyridin-3-yl}-3-ethoxythiophen-2-amine] | 0.1 |
| Cc1cc(OCc2c(F)cccc2F)c2nc(C)c(-c3cccnc3)n2c1 [Example 140, 8-[(2,6-Difluorobenzyl)oxy]-2,6-dimethyl-3-(pyridin-3-yl)imidazo[1,2-a]pyridine] | 0.1 |
| CCOC(=O)c1cc(-c2c(C)nc3c(OCc4c(F)cccc4F)cc(C)cn23)on1 [Example 141, Ethyl 5-{8-[(2,6-difluorobenzyl)oxy]-2,6-dimethylimidazo[1,2-a]pyridin-3-yl}-1,2-oxazole-3-carboxylate] | 1.0 |

Other lines, results leading:

| MEC [µM] | SMILES |
| --- | --- |
| 0.1 | Cc1cc(OCc2c(F)cccc2F)c2nc(C)c(-c3cc(CO)no3)n2c1 [Example 142, (5-{8-[(2,6-Difluorobenzyl)oxy]-2,6-dimethylimidazo[1,2-a]pyridin-3-yl}-1,2-oxazol-3-yl)methanol] |
| 1.0 | Cc1cc(OCc2c(F)cccc2F)c2nc(C)c(-c3cc(CC(C)(C)N)n[nH]3)n2c1 [Example 143, 1-(3-{8-[(2,6-Difluorobenzyl)oxy]-2,6-dimethylimidazo[1,2-a]pyridin-3-yl}-1H-pyrazol-5-yl)-2-methylpropan-2-amine] |
| 0.3 | Cc1cc(OCc2c(F)cccc2F)c2nc(C)c(-c3cc(CC(C)(C)N)no3)n2c1 [Example 144, 1-(5-{8-[(2,6-Difluorobenzyl)oxy]-2,6-dimethylimidazo[1,2-a]pyridin-3-yl}-1,2-oxazol-3-yl)-2-methylpropan-2-amine] |
